Data reported in ChEMBL document CHEMBL1201862, “PubChem BioAssay data set” (2004).
Activity calls are given as the source filed them.

Assays:
[1] = biological target: T1, Exodeoxyribonuclease V (Escherichia coli (strain K12), UniProt P04993+P07648+P08394); assay: RecBCD inhibition via phage-restricted bacterial growth – absorbance, V66 E. coli, mutant T4 phage, counter-screen for AddAB inhibitor project, dose response (AID 492957); assay type: functional, cell-based, Escherichia coli str. K-12 substr. MG1655
T1 sequence (P04993 whole entry): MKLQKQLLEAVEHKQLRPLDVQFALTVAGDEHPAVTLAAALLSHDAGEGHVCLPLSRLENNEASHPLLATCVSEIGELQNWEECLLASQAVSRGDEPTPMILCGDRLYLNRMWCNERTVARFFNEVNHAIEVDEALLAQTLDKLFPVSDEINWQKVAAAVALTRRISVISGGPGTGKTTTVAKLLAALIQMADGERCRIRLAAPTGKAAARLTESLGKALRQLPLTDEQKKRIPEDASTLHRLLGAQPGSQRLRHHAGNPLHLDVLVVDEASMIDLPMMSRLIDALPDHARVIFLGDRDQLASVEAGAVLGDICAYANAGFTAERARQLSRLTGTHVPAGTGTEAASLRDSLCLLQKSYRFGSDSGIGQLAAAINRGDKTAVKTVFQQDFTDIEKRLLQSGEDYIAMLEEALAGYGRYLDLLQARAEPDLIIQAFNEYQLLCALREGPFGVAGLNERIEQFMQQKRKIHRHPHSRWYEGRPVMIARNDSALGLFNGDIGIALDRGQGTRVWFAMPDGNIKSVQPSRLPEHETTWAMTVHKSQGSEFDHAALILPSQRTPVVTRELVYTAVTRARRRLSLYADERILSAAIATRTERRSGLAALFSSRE
T1 sequence (P07648 whole entry): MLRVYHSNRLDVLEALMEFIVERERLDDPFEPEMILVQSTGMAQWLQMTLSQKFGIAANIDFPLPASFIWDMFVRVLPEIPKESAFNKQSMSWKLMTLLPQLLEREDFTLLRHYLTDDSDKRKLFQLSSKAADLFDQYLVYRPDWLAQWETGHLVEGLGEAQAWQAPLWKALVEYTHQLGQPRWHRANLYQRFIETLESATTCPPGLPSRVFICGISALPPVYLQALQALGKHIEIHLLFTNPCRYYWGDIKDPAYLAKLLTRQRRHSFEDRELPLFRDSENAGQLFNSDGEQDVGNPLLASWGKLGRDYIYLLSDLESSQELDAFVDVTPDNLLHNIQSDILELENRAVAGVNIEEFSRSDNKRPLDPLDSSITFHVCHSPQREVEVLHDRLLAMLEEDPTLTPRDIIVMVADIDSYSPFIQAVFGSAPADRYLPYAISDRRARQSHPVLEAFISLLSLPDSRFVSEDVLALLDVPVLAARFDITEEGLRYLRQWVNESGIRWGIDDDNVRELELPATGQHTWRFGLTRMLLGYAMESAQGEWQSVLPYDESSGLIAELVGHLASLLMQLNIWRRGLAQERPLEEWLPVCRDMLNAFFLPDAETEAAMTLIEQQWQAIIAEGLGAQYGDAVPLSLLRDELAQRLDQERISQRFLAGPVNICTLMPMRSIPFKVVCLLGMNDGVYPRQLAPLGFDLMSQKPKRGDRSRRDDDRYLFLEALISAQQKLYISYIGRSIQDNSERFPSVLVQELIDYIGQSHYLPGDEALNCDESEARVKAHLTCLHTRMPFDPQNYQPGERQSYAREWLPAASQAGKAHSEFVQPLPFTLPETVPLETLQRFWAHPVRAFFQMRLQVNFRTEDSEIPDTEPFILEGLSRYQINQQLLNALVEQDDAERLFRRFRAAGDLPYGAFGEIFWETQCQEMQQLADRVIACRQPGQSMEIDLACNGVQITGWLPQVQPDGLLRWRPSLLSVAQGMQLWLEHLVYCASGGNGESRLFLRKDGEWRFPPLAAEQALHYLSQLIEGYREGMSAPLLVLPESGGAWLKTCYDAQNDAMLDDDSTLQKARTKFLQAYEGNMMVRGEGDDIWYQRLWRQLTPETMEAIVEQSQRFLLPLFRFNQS
T1 sequence (P08394 whole entry): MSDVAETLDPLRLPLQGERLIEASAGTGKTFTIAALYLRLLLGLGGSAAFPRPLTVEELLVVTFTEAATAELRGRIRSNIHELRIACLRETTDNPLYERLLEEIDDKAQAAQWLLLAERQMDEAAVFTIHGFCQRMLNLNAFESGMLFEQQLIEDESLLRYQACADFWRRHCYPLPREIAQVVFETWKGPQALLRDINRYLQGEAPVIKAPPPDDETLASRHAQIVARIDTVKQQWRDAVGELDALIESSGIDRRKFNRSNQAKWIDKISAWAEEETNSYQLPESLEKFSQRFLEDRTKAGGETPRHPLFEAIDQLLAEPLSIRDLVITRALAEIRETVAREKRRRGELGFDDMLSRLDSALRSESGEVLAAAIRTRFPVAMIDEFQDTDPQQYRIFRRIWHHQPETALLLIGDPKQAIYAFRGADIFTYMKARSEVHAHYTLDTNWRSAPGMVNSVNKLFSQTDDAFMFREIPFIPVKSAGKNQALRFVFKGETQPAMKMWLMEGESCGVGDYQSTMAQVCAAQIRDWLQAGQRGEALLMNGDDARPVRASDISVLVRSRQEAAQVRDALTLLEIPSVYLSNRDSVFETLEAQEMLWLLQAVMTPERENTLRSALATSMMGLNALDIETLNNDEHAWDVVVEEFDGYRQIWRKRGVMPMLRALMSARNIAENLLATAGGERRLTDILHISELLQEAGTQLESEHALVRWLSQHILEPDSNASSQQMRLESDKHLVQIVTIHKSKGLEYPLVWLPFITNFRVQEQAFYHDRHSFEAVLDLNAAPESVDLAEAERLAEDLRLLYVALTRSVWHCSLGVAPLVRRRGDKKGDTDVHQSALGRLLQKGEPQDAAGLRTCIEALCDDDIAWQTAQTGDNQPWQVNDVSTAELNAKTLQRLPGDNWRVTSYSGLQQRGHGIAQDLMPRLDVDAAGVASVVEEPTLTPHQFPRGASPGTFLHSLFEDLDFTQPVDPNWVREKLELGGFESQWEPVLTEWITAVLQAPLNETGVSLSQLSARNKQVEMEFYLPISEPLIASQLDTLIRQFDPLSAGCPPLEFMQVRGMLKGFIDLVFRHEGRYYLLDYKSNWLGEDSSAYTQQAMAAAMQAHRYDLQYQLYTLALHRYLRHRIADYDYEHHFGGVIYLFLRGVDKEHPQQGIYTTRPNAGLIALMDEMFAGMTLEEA

[2] = test system: INS1; assay: INS-1E survival protection against cytokine death – cell-based, luminescence, retest, dose response (AID 449756); assay type: functional; conditions: Rattus norvegicus;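 further: cell death triggered by IL-1 beta plus TNF-alpha plus IFN-gamma mixture; protective hits raise ATP signal compared with cytokine alone wells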
[3] = biological target: Paired box protein Pax-8 (Homo sapiens, UniProt Q06710); assay: PAX8 transcriptional activity inhibition in RMG-I – RMG-I cells, luciferase, cherry-pick, dose response (AID 687027); assay type: functional, cell-based;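 further: luciferase reporter driven by Pax8 target thyroperoxidase promoter measured by SteadyGlo luminescence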
[4] = OVCAR-3 cell viability loss – plate reader, dry powder samples, PAX8 inhibitor project, dose response (AID 743044); assay type: functional, cell-based
[5] = PAX5 cellular inhibition readout – cell-based, plate reader, dry powder samples, selectivity assay for PAX8 inhibitor project, dose response (AID 743047); assay type: functional;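 further: HEK293 cells carrying a Pax5 driven CD19 promoter luciferase reporter; potency of inhibitors that lower reporter luminescence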
[6] = decrease of insulin promoter-GFP reporter – imaging, high-content screening, mouse beta cells (AID 1628); assay type: functional; conditions: MIN6

Paired box protein Pax-8, sequence (Q06710 whole entry): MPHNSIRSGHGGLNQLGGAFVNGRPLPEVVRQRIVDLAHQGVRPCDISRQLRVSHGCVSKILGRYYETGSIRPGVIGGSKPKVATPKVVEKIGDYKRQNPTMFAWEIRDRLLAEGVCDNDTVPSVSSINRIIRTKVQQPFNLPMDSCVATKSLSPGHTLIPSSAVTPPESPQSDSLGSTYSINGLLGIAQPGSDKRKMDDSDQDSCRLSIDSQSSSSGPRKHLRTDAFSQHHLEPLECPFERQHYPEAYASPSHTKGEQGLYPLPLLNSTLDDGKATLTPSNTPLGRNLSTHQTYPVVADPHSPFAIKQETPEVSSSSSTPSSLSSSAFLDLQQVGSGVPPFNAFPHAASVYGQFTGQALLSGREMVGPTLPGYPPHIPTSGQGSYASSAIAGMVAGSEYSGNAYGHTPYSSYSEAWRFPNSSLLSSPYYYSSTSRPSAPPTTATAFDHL

| SMILES | IC50 [1] | AC50 [2] | AC50 [3] | AC50 [4] | AC50 [5] | IC50 [6] |
| --- | --- | --- | --- | --- | --- | --- |
| CCCCC(=O)NC(c1ccccc1)c1ccc2cccnc2c1O (centres undefined) | > 118 µM (inactive) | 0.614 µM (active) | 3.24 µM (active) | 2.45 µM (active) | 2.37 µM (active) |  |
| CC(=O)N(Cc1ccc(F)cc1)C1=C(NCCc2ccccc2)C(=O)c2ccccc2C1=O |  | 2.18 µM (active) |  |  |  |  |
| O=C(/C=C/c1cccs1)NC(=S)NNC(=O)c1ccccc1O | 114 µM (inactive) |  | 2.35 µM (active) |  |  | 2.78 µM (active) |
